Where two headings read alike, the source gives them in different places.
Legend:
[1] = tested on: HCV replicon (5-2 Luc replicon-comprising cells); test: HCV replicon assay (luciferase); format: cell-based, Hepatitis C virus; conditions: Hepatitis C virus, read-out: Replicon IC50
How it was run: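 Readout: IC50 from a 50% drop in luciferase signal (Bright-Glo, luminometer), scored + (≤10 μM) or − (>10 μM). Compounds added at various concentrations to 5-2 Luc replicon cells (Huh7 background), pre-incubated 24 h, then incubated 24 h more before reading.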

[2] = tested on: HCV nonstructural protein NS5A or NS3 in 9–13 replicon cells; test: Quantitative Western blot assay; format: cell-based, Hepatitis C virus; conditions: Hepatitis C virus, read-out: Western IC50
Procedure: Alternatively, the inhibitory activity of the compounds can be confirmed using a quantitative Western immunoblot assay utilizing antibodies specific for HCV non-structural proteins, such as NS3, NS4A NS5A and NS5B. In one embodiment of this assay, replicon cells are treated with varying concentrations of test compound to determine the concentration of test compound that yields a 50% reduction in the amount of a non-structural protein produced as compared to a control sample (IC50). A single non-structural protein may be quantified or multiple non-structural proteins may be quantified. Antibodies suitable for carrying out such immunoblot assays are available commercially (e.g., from BIODESIGN International, Saco, Me.).
Certain exemplary compounds of the invention were also tested for their ability to inhibit HCV replication using a quantitative Western blot analysis with antibodies specific for the HCV nonstructural protein NS5A or NS3. Actively dividing 9–13 replicon cells were seeded into Swell plates at a density of 1×10^5 cells/well in a volume of 2 ml/well and incubated at 37° C. and 5% CO2 for 24 hours. Various concentrations of test compounds (in a volume of 10 ul) were added to the wells and the cells incubated for another 48 hours. Protein samples were prepared from the cultured cells, resolved on a SDS-PAGE gel and transferred to a nitrocellulose membrane. The membrane was blocked with 5% non-fat milk in PBS for 1 hour at room temperature. Primary antibody (anti NS5A antibody; BIODESIGN International, Saco, Me. or anti NS3 antibody, Rigel) incubation was performed for 1 hour at room temperature, after which the membrane was washed 3 times (for 15 min per time) with PBST (PBS plus 0.1% Tween 20). Horseradish peroxidase conjugated secondary antibody incubation was performed for 1 hour at room temperature and the membrane was washed 3 times (for 15 min per time) with PBST. The membrane was then soaked in substrate solution (Pierce) and exposed to a film or quantified using an imager. In this assay, the amount of test compound that yielded a 50% reduction in the amount of NS5A or NS3 protein translated as compared to a control sample (IC50) was determined.
In TABLE 1, a value of “+” indicates an IC50 of 10 μM or less in the specified assay; a value of “−” indicates an IC50 of greater than 10 μM in the specified assay.

[3] = Cytotoxicity assay (Cell Titer Glo); format: cell-based; conditions: human; 48 hr with compound, ATP-dependent Cell Titer Glo assay; read-out: IC50 in cytotoxicity assay (number of viable cells)
How it was run: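 HCV replicon-bearing liver cells (5-2 Luc, 9–13 or Huh-7) grown 24 h at 37° C, then exposed to a range of compound concentrations for 48 h at 37° C. Viable cell number by ATP-dependent luminescence (Cell Titer Glo).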

| SMILES | IC50 [1] [µM] | melting point [°C] | IC50 [2] [µM] | IC50 ([1]; 5-2 Luc replicon cells, luciferase readout) [µM] | IC50 at 48 h [3] [µM] | IC50 ([2]; 9–13 replicon cells, NS5A or NS3 Western blot) [µM] |
| --- | --- | --- | --- | --- | --- | --- |
| O=C(Nc1cccc(-c2cc(-c3c(Cl)cccc3Cl)no2)c1)C(Cl)Cl [Compound 9, 2,2-Dichloro-N-[3-[3-(2,6-dichlorophenyl)-5-isoxazolyl]phenyl]Acetamide] | < 10 | 167 | < 10 | – | – | – |
| Cc1cccc(-c2cc(-c3cccc(NC(=O)C(Cl)Cl)c3)on2)c1C [Compound 163, 2,2-Dichloro-N-[3-[3-(2,3-dimethylphenyl)-5-isoxazolyl]phenyl]Acetamide] | – | – | – | > 10 | > 10 | > 10 |

— US7115642B2, “Substituted diphenyl isoxazoles, pyrazoles and oxadiazoles useful for treating HCV infection” (priority 2003, dated 2006)
